Experimental data from patent US20010000513A1, “Biphenyl butyric acids and their derivatives as inhibitors of matrix metalloproteinases” (priority 1996, published 2001).
Each block holds one compound with its values, some of them ahead of it.

Experiments:
[1] = test system: male Wistar rats, polyarthritis induced by Mycobacterium butyricum; test: Adjuvant Arthritis Model, hind paw edema; format: in vivo; conditions: P <0.001
Protocol: Polyarthritis was induced by a modified method of the procedure developed by Chang, et al., Arthritis and Rheum., 1980;23:62. Briefly, male Wistar rats (100-115 g each) received subcutaneous injection of 0.1 mL of 10 mg/mL (or 1 mg) Mycobacterium butyricum suspended in paraffin oil in the distal third of the tail, using a glass tuberculin syringe and 25 gauge needle. M. Butyricum suspension was achieved by sonication in paraffin oil for 10 minutes with the vessel immersed in ice bath. Rates were randomized after injection and placed in cages. […] The rest were randomized and separated into dosing (test) groups (N=10 per group) and control (vehicle) group (N=20). The hind paws volume and the weights of each animal in each group was recorded and served as the initial values for the study. Hind paw swelling was assessed using mercury plethysmography beginning on Day 12 and every other day till Day 22 (final assessment).
The dose volume was 10 mL/kg PO. Animals were dosed twice daily for 10 days starting on Day 12. Also, hind paw volumes were measured on Days 12, 14, 16, 18, 20, and 22 as stated above. The results are reported as % inhibition of delta edema on Day 22. Delta edema is the difference in footpad edema between the day in which animals are assessed and that on Day 12 of the study. The percent inhibition is based on a comparison of the treatment groups to the vehicle group.

[2] = test system: Female Lewis rats sensitized to streptococcal cell walls; test: Streptococcal Cell Wall Model (SCW), paw swelling; format: in vivo; conditions: rat SCW flare
Protocol: Female Lewis rats (125-150 g) are sensitized to the 100 P preparation of streptococcal cell walls (obtained from Lee Labs, Greyson, Ga.) with an intra-articular injection of 10 μL SCW containing 6 μg of the cell wall particles into one of the ankle joints. The contralateral ankle joint is injected with an equal volume of saline. Twenty-one days later, animals are placed in treatment groups (7 per group) according to their immediate response to the intra-articular injection of SCW (to obtain groups with equivalent responses). A control group is injected with saline. Each animal is then lightly anesthetized with ether, the paw volumes of each hind paw are determined by mercury plethysmography, and the animals are injected IV via the tail vein with a 0.25-mL dose of SCW containing 100 μg of the 100 P cell wall particles. Each group of rats receives an oral dose of compound for 7 days in an appropriate dosing vehicle beginning on Day 21. Paw swelling is determined by subtracting the paw volume of the saline injected ankle from the SCW sensitized ankle. Percent inhibition is calculated by comparing the compound treatment group with the control group. A one-way analysis of variance with a Dunnett's test for multiple comparisons is used for determination of statistical power. Rats were sensitized 21 days prior to initiating the flare response by systemic SCW. […] Paw volume was measured 24 hours after the first administration. Numbers represent the mean percent inhibition of swelling from 10 animals/treatment group.

[3] = test system: Male Swiss-Webster mice, 0.6% acetic acid i.p.; test: Acetic Acid-Induced Hyperalgesia Model, writhing; format: in vivo; conditions: for % Inhibition (writhing): 1 hour before acetic acid
Protocol: Treatment groups (n=8) were divided so that 2 animals were placed into each of four 4″×4″×4″ adjacent plexiglass containers. Seven minutes after acid, writhing motions (abdominal contractions, concave arching of the back, and/or hindleg stretching) were tallied for 5 minutes. The ID40 value was calculated by linear regression analysis.

[4] = test system: mice sensitized with a fragment of mouse myelin basic protein to induce EAE; test: Experimental Autoimmune Encephalomyelitis (EAE); format: in vivo
Protocol: Compounds were administered by oral route to mice sensitized with a fragment of mouse myelin basic protein to induce EAE. Mice were dosed daily for 21 days beginning 4 hours before sensitization on day one. EAE responses of compound treated groups were compared to those of a control group of mice sensitized identically and a sham-sensitized group treated with vehicle. The values reported in Table 2 include responses during compound treatment only.
Sensitization Female mice [PL/J(FI)×SJL/J, Jackson Labs], 11 weeks old, were sensitized s.c. (0.05 cc×2) at the base of the tail with an emulsion containing equal parts of mouse myelin basic protein (MBP) fragment (amino acids 1-9 of the N-terminus of MBP) in saline and Difco Complete Freund's Adjuvant (CFA) fortified with heat killed desiccated Mycobacteria tuberculosis (MT). Each mouse received 300 μg of MBP fragment (230 μg free base) and 200 μg MT followed by retrobulbar (IV) injection of 200 ng of B. pertussis toxin in 0.2 cc of saline. Two days later mice receive a second injection of B. pertussis toxin.
Neurological Assessment Animals were weighed and evaluated for symptoms of EAE before and frequently after sensitization. EAE score: (0.5=slight limp tail, 1=limp tail or slow to right, 1.5=slight limp tail and slow to right, 2=paresis/mild paralysis or incontinence, 2.5=mild paralysis and slow to right or complete paralysis (one hind limb), 3=hind limb paralysis (both), 3.5=hind limb paralysis (both) and limp torso; 4=additional fore limb paralysis, 4.5=head movement only, 5=moribund, death after previous EAE symptoms). Evaluators were blinded as to compound treatments and previous behavioral scores.
Disease symptoms are compared among groups for EAE severity, incidence, time to onset, cumulative score, and deaths. Peak EAE score: the mean of the highest score for each mouse in a group, independent of duration of symptoms; EAE incidence: the mean number of mice showing symptoms of EAE, defined as having EAE scores on any 3 consecutive days that total “≧3.0”. EAE deaths: an animal that died must have presented previous evidence of an EAE score greater than 0.5; EAE onset: the first of a 3-day series scoring a total of ≧3.0.
A Cumulative EAE score is calculated for each animal. A mean of all animals' cumulative scores is then determined for each day.
Experimental groups were assumed to be similar and were compared for statistical significance by a 2-tailed T-Test (p≦0.05).
Compound was homogenized manually with an aliquot of warm vehicle (1.0% hydroxypropyl-methylcellulose [Sigma] in water) in glass mortar tubes and homogenizing pestle. The smooth compound paste was gradually suspended in vehicle. Mice were dosed with compound and/or vehicle, 10 mL/kg in groups of ten. A sham-sensitized group was similarly dosed with vehicle.

SMILES: COc1ccc(-c2ccc(C(CCC(=O)O)=NO)cc2)cc1 [Example 13, 4-Hydroxyimino-4-(4′-methoxy-biphenyl-4-yl)-butyric acid]
- melting point: 157 to 160 °C

SMILES: O=C(O)CCC(=NO)c1ccc(-c2ccc(Cl)cc2F)cc1 [Example 10, 4-(4′-Chloro-2′-fluoro-biphenyl-4-yl)-4-hydroxyimino-butyric acid]
- melting point: 147.5 to 149.5 °C

SMILES: CN(C)N=C(CCC(=O)O)c1ccc(-c2ccc(Cl)cc2)cc1 [Example 3, 4-(4′-Chloro-biphenyl-4-yl)-4-(dimethylhydrazono)-butyric acid]
- melting point: 158 to 160 °C

SMILES: O=C(O)CCC(=NO)c1ccc(-c2ccc(Br)cc2)cc1 [Example 2, 4-(4′-Bromo-biphenyl-4-yl)-4-hydroxyimino-butyric acid]
- melting point: 175 to 176 °C

SMILES: O=C(O)CCC(=NO)c1ccc(-c2ccccc2F)cc1 [Example 11, 4-(2′-Fluoro-biphenyl-4-yl)-4-hydroxyimino-butyric acid]
- melting point: 150 to 151.5 °C

SMILES: O=C(O)CCC(=NO)c1ccc(-c2ccc(Cl)cc2)cc1 [Example 1, 4-(4′-Chloro-biphenyl−4-yl)-4-hydroxyimino-butyric acid]
- % Inhibition of delta edema on Day 22 ([1]; 3.0 mg/kg bid PO for 10 days from Day 12): 68.1%
- % Inhibition of delta edema on Day 22 ([1]; 10.0 mg/kg bid PO for 10 days from Day 12): 84.4%
- % Inhibition of delta edema on Day 22 ([1]; 30.0 mg/kg bid PO for 10 days from Day 12): 99.9%
- % Inhibition at Day 4 (paw swelling) ([2]; 3 mg/kg bid oral): 71%
- % Inhibition at Day 4 (paw swelling) ([2]; 10 mg/kg bid oral): 86%
- % Inhibition at Day 4 (paw swelling) ([2]; 30 mg/kg bid oral): 86%
- % Inhibition (writhing) ([3]; 0.03 mg/kg oral): 7%
- % Inhibition (writhing) ([3]; 0.1 mg/kg oral): 26%
- % Inhibition (writhing) ([3]; 0.3 mg/kg oral): 37%
- % Inhibition (writhing) ([3]; 1 mg/kg oral): 41%
- % Inhibition (writhing) ([3]; 10 mg/kg oral): 65%
- ID40 ([3]; oral, calculated by linear regression analysis): 0.65 mg/kg
- effect on EAE cumulative score ([4]; 50 mg/kg oral): reduced the EAE cumulative score
- EAE Onset ([4]; 50 mg/kg oral daily for 21 days, control 12.2 ± 0.9, p ≦0.05 vs control): 16.2 ± 1.0 days
- EAE Cumulative Score ([4]; 50 mg/kg oral daily for 21 days, control 31.6 ± 1.7, p ≦0.05 vs control): 17.9 ± 2.8
- EAE Deaths ([4]; 50 mg/kg oral daily for 21 days, during compound treatment, control 2/10): 0/10
- EAE Incidence ([4]; 50 mg/kg oral daily for 21 days, mice with EAE/group, control 10/10): 9/10
- Peak EAE Score ([4]; 50 mg/kg oral daily for 21 days, responses during compound treatment only, control 4.2 ± 0.1): 3.8 ± 0.3
- EAE-induced deaths to Day 43 ([4]; 50 mg/kg oral, to Day 43): no EAE-induced deaths
- delay of the onset of EAE ([4]; dosed at 50 mg/kg oral): 4 days

SMILES: CON=C(CCC(=O)O)c1ccc(-c2ccc(Cl)cc2)cc1 [Example 9, 4-(4′-Chloro-biphenyl-4-yl)-4-methoxyimino-butyric acid]
- melting point: 183 to 186 °C

SMILES: N#Cc1ccc(-c2ccc(C(CCC(=O)O)=NO)cc2)cc1 [Example 14, 4-(4′-Cyano-biphenyl-4-yl)-4-hydroxyimino-butyric acid]
- melting point: 157 to 159 °C

SMILES: CON=C(CCC(=O)[O-])c1ccc(-c2ccc(Cl)cc2)cc1.[Na+] [Example 8, 4-(4′-Chloro-biphenyl-4-yl)-4-methoxyimino-butyric acid, sodium salt]
- melting point: 234 to 238 °C

SMILES: Cc1ccc(-c2ccc(C(CCC(=O)O)=NO)cc2)cc1 [Example 12, 4-Hydroxyimino-4-(4′-methyl-biphenyl-4-yl)-butyric acid]
- melting point: 176.5 to 177.5 °C

Further lines, results first:

- melting point: 190 to 192 °C
SMILES: O=C1CCC(c2ccc(-c3ccc(Cl)cc3)cc2)=NO1 [Example 18, 3-(4′-Chloro-biphenyl-4-yl)-4,5-dihydro-6-oxo-6H-1,2-oxazine]

- melting point: 162 to 164 °C
SMILES: CSc1ccc(-c2ccc(C(CCC(=O)O)=NO)cc2)cc1 [Example 17, 4-Hydroxyimino-4-(4′-methylsulfanyl-biphenyl-4-yl)-butyric acid]

- melting point: 155 to 157 °C
SMILES: O=C(O)CCC(=NO)c1ccc(-c2cccc(F)c2)cc1 [Example 15, 4-(3′-Fluoro-biphenyl-4-yl)-4-hydroxyimino-butyric acid]

- melting point: 134 to 136 °C
SMILES: O=C(O)CCC(=NO)c1ccc(-c2ccc(C(F)(F)F)cc2)cc1 [Example 16, 4-Hydroxyimino-4-(4′-trifluoromethyl-biphenyl-4-yl)-butyric acid]
